Reference: patent US20250346587A1, “NITROGEN-CONTAINING FIVE-MEMBERED HETEROCYCLIC DERIVATIVES AS CHECKPOINT KINASE 1 INHIBITOR AND USES THEREOF” (SPEROGENIX THERAPEUTICS LIMITED, priority 2022, published 2025)
In brackets after ≈: the same amount, converted by molar mass. Where two headings read alike, the source gives them in different places.

Experiments:
CHK-1 kinase = CHK-1 kinase (Homo sapiens (Human), UniProt O14757); assay: CHK-1 % inhibition kinase assay (TR-FRET); type: biochemical; conditions: ATP 15 μM; for inhibition at 0.03 µM / inhibition at 0.3 µM: CHK1 enzyme; for inhibition at 0.03 µM: compound 30 nM; for inhibition at 0.3 µM: compound 300 nM; for IC50: TR-FRET, read-out: CHK1 IC50
CHK-1 kinase, sequence (O14757 whole entry): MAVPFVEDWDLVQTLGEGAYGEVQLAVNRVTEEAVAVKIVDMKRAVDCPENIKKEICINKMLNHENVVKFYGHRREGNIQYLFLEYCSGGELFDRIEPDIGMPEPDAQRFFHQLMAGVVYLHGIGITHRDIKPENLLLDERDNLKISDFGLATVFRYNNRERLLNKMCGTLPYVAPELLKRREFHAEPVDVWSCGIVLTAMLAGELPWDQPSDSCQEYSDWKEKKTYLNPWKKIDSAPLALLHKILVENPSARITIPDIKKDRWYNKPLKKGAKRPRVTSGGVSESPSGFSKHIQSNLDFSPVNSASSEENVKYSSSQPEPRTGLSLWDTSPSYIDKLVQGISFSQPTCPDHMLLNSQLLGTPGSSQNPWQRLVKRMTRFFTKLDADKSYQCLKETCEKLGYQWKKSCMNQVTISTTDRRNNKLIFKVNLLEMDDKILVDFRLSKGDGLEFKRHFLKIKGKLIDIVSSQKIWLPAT
Experimental: Inhibition of CHK-1 kinase or percent inhibition at defined concentrations was determined by TR-FRET assay. Kinase reactions were performed in a 20 μL volume in low-volume 384-well plates (Cat #Corning 4511). The concentration of substrate Fluorescein-CREBtide was maintained at 0.2 μM in the assay, and the kinase reaction buffer consisted of 50 mM HEPES pH 7.5, 0.01% BRIJ-35, 10 mM MgCl2, 1 mM EGTA. Serially diluted compounds (3-fold) in DMSO (0.5% in final reaction) were incubated with cocktail of CHK-1 kinase (6 nM; Cat #PR3959B, ThermoFisher), Fluorescein-CREBtide (0.2 μM; Cat #PV3508, ThermoFisher), ATP (15 μM; Cat #A1852, Sigma), and kinase reaction buffer. After 1 hour kinase reactions at room temperature, 10 μL of Detection mix (8 nM LanthaScreen® Tb-CREB [pSer133] antibody, Cat #PV3542, ThermoFisher with 20 mM EDTA in TR-FRET Buffer, Cat #PV3574, ThermoFisher) was added, and the plate was read with a plate reader (Synergy™ NEO; Biotek) for TR-FRET.
The resulting TR-FRET emission ratio was used to calculate the percent inhibition by normalizing to the control using the following formula: […]

[1] = Microsomal stability assay, human liver microsome; type: in vitro ADME; conditions: liver microsomes, pH 7.4, 0.2 mg/mL, 1 μM compound, 37° C., read-out: Clint HLM
Experimental: (§1) Incubation mixture contained 0.2 mg/mL microsomes, 1 mmol NADPH, and test compound at 1 μM in 100 mmol potassium phosphate buffer at pH 7.4. The mixtures were incubated at 37° C. for 5, 15, and 30 minutes. Aliquots of the mixtures were taken at 0, 5, 15 and 30 minutes and quenched with chilled Acetonitrile:Methanol (50:50) containing internal standard. Following completion of incubation, samples were centrifuged at 4,000 rpm at 4° C. The supernatant was analyzed by LC-MS/MS and half-life, as well as intrinsic clearance (Clint), were calculated.

[2] = Microsomal stability assay, mouse liver microsome; type: in vitro ADME; conditions: liver microsomes, pH 7.4, 0.2 mg/mL, 1 μM compound, 37° C., read-out: Clint MLM
Experimental: as §1

[3] = Microsomal stability assay, rat liver microsome; type: in vitro ADME; conditions: liver microsomes, pH 7.4, 0.2 mg/mL, 1 μM compound, 37° C., read-out: Clint RLM
Experimental: as §1

physchem = conditions: 37 °C, pH 7.4, aqueous buffer, kinetic from dmso stock
Experimental: (§2) Test articles were serially diluted in DMSO from concentration range of 10 mM to 0.078 mM in 96 well v-bottom dilution plate (#3363, Corning). 1 μL of test article from each well was transferred to 96 well flat bottom clear plates (#655101, Greiner) containing 99 μL of PBS at pH-7.4, which makes the test drug final concentration range from 100 μM to 0.78 μM. Samples were incubated for 1 hour at 37° C. followed by measurement of light scattering at 625 nm with a laser based micro plate Nephelometer (Nephlostar Plus, BMG Labtech). Solubility concentration (μM) was then calculated by segmental regression with Neplometer as Readout.

[4] = Caco-2 cell permeability assay; type: in vitro ADME; conditions: human; for Papp A→B at 120 min: Caco-2, A to B; for Papp A→B at 120 min / Papp B→A at 120 min: pH 7.4; for Papp B→A at 120 min: Caco-2, B to A
Experimental: After thawed, Caco-2 cells were cultured in the medium containing 10% FBS, 1% Sodium pyruvate, 1% NEAA and 1% Glutamax MEM, then were placed in the incubator containing 5% CO2 at 37° C., and the culture medium then was replaced every 2-3 days. When the confluence reached 80%, the subculture was carried out. Add 5 mL of 1 M HEPES to 500 mL of HBSS for preparing transport buffer (pH 7.4), and the final concentration of HEPES was 10 mM. Before the transport study (day 21-28), take out the culture medium from the cell culture plate, wash it twice with preheated HBSS buffer (10 mM HEPES, pH 7.4), and add 100 μL HBSS buffer to each well. After incubation at 37° C. for 30 minutes, Teer value was measured by cell resistance meter (Millicell-ERS2) to confirm the integrity of monolayer cells. Discard the HBSS buffer, transfer the upper plate containing the cell monolayer membrane to the corresponding receiving plate, add the test compound solution or buffer to the top (side A) and the bottom (side B) respectively, put the cell plate into the corresponding 96 well receiving plate, and add the prepared positive control compound, test compound or HBSS buffer (with 0.5% BSA) on side A or side B of the filter membrane of Transwell cell plate according to the following groups, incubate cell plates at 37° C. When incubated for 5 minutes, 8 μL sample solutions were taken from the side A and the side B respectively and add 72 μL transport buffer (diluted 10 times) as TO of the initial solution. After 120 minutes of incubation, collect the samples at both ends of the filter membrane of Transwell cell plate; take 80 μL sample solution from the receiving side as the sample on the receiving side after transport, meanwhile take 8 μL sample solution from the administration side and then mix with 72 μL transport buffer, the well-mixed solution was used as the sample on the administration side after transport. After collecting bilateral samples, tap gently, discard the remaining solution in the cell plate, wash the cell plate with transport buffer; and to each well, add 100 μL acetonitrile solution containing internal standard working solution to lyse cells; After mixing well by blowing up and down, take 80 μL per well cell lysate as the sample after cell lysis. After collecting all samples in the transport system (TO sample from receiving side and administration side), 160 μL IS/ACN solution was added to each well, 80 μL IS/ACN solution was added to the collected lysate sample, and then seal it. Shake for 10 minutes and store the sample plate at −20° C. before LC-MS/MS analysis.
The following equation are used to calculate the apparent permeability coefficient (Papp, cm/s), the efflux ratio (ER), the solution recovery (% Recovery) and the total recovery (% Total Recovery).
Where, • Vreceiver is the volume of solution at the receiving end (0.25 mL for A to B and 0.1 mL for B to A); • Vdonor is the volume of the solution at the administration end (0.1 mL for A to B and 0.25 mL for B to A); • Vlysate is the volume of cell lysate (0.1 mL); • Area is the relative surface area of the cell monolayer (0.0804 cm^2); • Time is the incubation time (7200 s); • [drug]receiver is the drug concentration (nM) at the receiving end or the control compound; • [drug]donor is the concentration of drug or control compound at the administration end (nM); • [drug]lysate is the concentration of drug or control compound in cell lysate (nM); • [drug]initial is the initial concentration of the test or control compound (nM).

[5] = Kinetic solubility assay (nephelometry); conditions: PBS, 37 °C, pH 7.4, aqueous buffer, kinetic from dmso stock
Experimental: as §2

[6] = Caco-2, pH 7.4, Caco-2, solution recovery, A to B, read-out: Recovery % A to B
[7] = Caco-2, pH 7.4, Caco-2, solution recovery, B to A, read-out: Recovery % B to A
[8] = Caco-2, pH 7.4, Caco-2, total recovery with cell lysate, A to B, read-out: Recovery % with Cell Lysate A to B
[9] = Caco-2, pH 7.4, Caco-2, total recovery with cell lysate, B to A, read-out: Recovery % with Cell Lysate B to A

| SMILES | inhibition at 0.03 µM (CHK-1 kinase) | inhibition at 0.3 µM (CHK-1 kinase) | microsomal CLint at 1 μM [1] | microsomal CLint at 1 μM [2] | microsomal CLint at 1 μM [3] | solubility kinetic at 1 h (physchem) | IC50 (CHK-1 kinase) | recovery at 120 min [4, 6] | recovery at 120 min [4, 7] | recovery at 120 min [4, 8] | recovery at 120 min [4, 9] | Papp A→B at 120 min [4] | Papp B→A at 120 min [4] | solubility kinetic at 1 h [5] |
| --- | --- | --- | --- | --- | --- | --- | --- | --- | --- | --- | --- | --- | --- | --- |
| COc1cc(C2=CCN(C)CC2)ccc1-c1cc(Nc2cnc(C#N)cn2)on1 [Compound 1.22, 5-(3-(2-methoxy-4-(1-methyl-1,2,3,6-tetrahydropyridin-4-yl)phenyl)isoxazol-5-ylamino) pyrazine-2-carbonitrile] | 13.7% | 11% | 169 µL/min/mg | 313 µL/min/mg | 142 µL/min/mg | 28.4 µM (≈ 11 µg/mL) |  |  |  |  |  |  |  |  |
| N#Cc1cnc(Nc2cc(-c3ccccc3OCC3CCNCC3)on2)cn1 [Compound 1.2, 5-(5-(2-(piperidin-4-ylmethoxy)phenyl)isoxazol-3-ylamino) pyrazine-2-carbonitrile] | 36% | 85% | 45 µL/min/mg | 39 µL/min/mg | 27 µL/min/mg |  | 13.3 nM | 67.7% | 103% | 93.9% | 108% | 5.35 ×10⁻⁶ cm/s | 9.75 ×10⁻⁶ cm/s | 45.6 µM (≈ 17.2 µg/mL) |
| COc1cc(C2=CCNCC2)ccc1-c1cc(Nc2cnc(C#N)cn2)no1 [Compound 1.19, 5-(5-(2-methoxy-4-(1,2,3,6-tetrahydropyridin-4-yl)phenyl)isoxazol-3-ylamino) pyrazine-2-carbonitrile] | 15.1% | 50.5% | 183 µL/min/mg | 239 µL/min/mg | 88 µL/min/mg | 27.6 µM (≈ 10.3 µg/mL) |  |  |  |  |  |  |  |  |
| N#Cc1cnc(Nc2cc(-c3ccccc3OCC3CNCCO3)on2)cn1 (stereo not drawn) [Compound 1.1, 5-(5-(2-(morpholin-2-ylmethoxy)phenyl)isoxazol-3-ylamino) pyrazine-2-carbonitrile] | 49% | 88% | 32 µL/min/mg | 100 µL/min/mg | 58 µL/min/mg |  | 67.7 nM | 69% | 102% | 94.1% | 107% | 7 ×10⁻⁶ cm/s | 8.7 ×10⁻⁶ cm/s | 44 µM (≈ 16.6 µg/mL) |
| COc1cc(C2=CCNCC2)ccc1-c1cc(Nc2cnc(C#N)cn2)on1 [Compound 1.9, 5-(3-(2-methoxy-4-(1,2,3,6-tetrahydropyridin-4-yl)phenyl)isoxazol-5-ylamino) pyrazine-2-carbonitrile] | 33% | 31% | 159 µL/min/mg | 83 µL/min/mg | 85 µL/min/mg | 100 µM (≈ 37.4 µg/mL) | > 10000 nM |  |  |  |  |  |  |  |
| N#Cc1cnc(Nc2cc(-c3ccccc3OCCCCN)on2)cn1 [Compound 1.6, 5-(5-(2-(4-aminobutoxy)phenyl)isoxazol-3-ylamino) pyrazine-2-carbonitrile] | 71% | 91% | 63 µL/min/mg | 63 µL/min/mg | 118 µL/min/mg |  | 12.3 nM |  |  |  |  |  |  | 42.8 µM (≈ 15 µg/mL) |
| N#Cc1cnc(Nc2cc(-c3ccccc3OCCCN)on2)cn1 [Compound 1.5, 5-(5-(2-(3-aminopropoxy)phenyl)isoxazol-3-ylamino) pyrazine-2-carbonitrile] | 63% | 89% | 78 µL/min/mg | 77 µL/min/mg | 70 µL/min/mg |  | 7.82 nM |  |  |  |  |  |  | 41.8 µM (≈ 14.1 µg/mL) |
| CN1CCOC(COc2ccccc2-c2cc(Nc3cnc(C#N)cn3)no2)C1 (stereo not drawn) [Compound 1.8, 5-(5-(2-((4-methylmorpholin-2-yl)methoxy)phenyl)isoxazol-3-ylamino) pyrazine-2-carbonitrile] | 51% | 64% | 202 µL/min/mg | 481 µL/min/mg | 104 µL/min/mg |  | 76.6 nM |  |  |  |  |  |  | 32 µM (≈ 12.6 µg/mL) |
| N#Cc1cnc(Nc2cc(-c3ccccc3OC3CNC3)on2)cn1 [Compound 1.4, 5-(5-(2-(azetidin-3-yloxy)phenyl)isoxazol-3-ylamino) pyrazine-2-carbonitrile] | 7% | 54% | 52 µL/min/mg | 66 µL/min/mg | 27 µL/min/mg |  | 86.4 nM |  |  |  |  |  |  | 100 µM (≈ 33.4 µg/mL) |
| N#Cc1cnc(Nc2cc(-c3ccccc3OCC3CCCNC3)on2)cn1 (stereo not drawn) [Compound 1.3, 5-(5-(2-(piperidin-3-ylmethoxy)phenyl)isoxazol-3-ylamino) pyrazine-2-carbonitrile] | 50% | 97% | 47 µL/min/mg | 68 µL/min/mg | 61 µL/min/mg |  | 7.77 nM | 54.7% | 103% | 89% | 107% | 3.4 ×10⁻⁶ cm/s | 11.2 ×10⁻⁶ cm/s | 100 µM (≈ 37.6 µg/mL) |
| N#Cc1cnc(Nc2cc(-c3cc4ccccc4cc3OCC3CNC3)[nH]n2)cn1 [Compound 2.2, 5-(5-(3-(azetidine-3-ylmethoxy)naphthalen-2-yl)-1H-pyrazol-3-ylamino) pyrazine-2-carbonitrile] | 80% | 96% | 21 µL/min/mg | 153 µL/min/mg | 45 µL/min/mg |  | 4.14 nM |  |  |  |  |  |  | 41.8 µM (≈ 16.6 µg/mL) |
